According to patent US12514800B2, “Personal and home care compositions comprising fatty acids from tung seed oil as antimicrobial preservative” (GALAXY SURFACTANTS LTD., priority 2020, dated 2026):

Test: UV absorption (E1% 1 cm)
Assay type: physicochemical
Conditions: at the λmax printed in Table 1 (290 nm fatty acids; 305 nm Homosalate, Octyl salicylate)
Description: Personal care composition comprising fatty acids, as obtained synthetically from Tung seed oil by aforementioned process, have good UV absorbing activity arising from the conjugated system of the fatty acids and is evident from its value of E1% lcm which is 1600 at 270 nm and 360 at 290 nm. In view of incorporation of the fatty acids in the personal care composition, not only the ingredients of the formulations are protected but also the skin and hair are protected from the ravages of solar radiation when the formulations are applied. […] The same is evident from the values of E1% lcm which is 360 at 290 nm (FIG. 2). UV B radiation of solar spectrum is the most damaging since it causes skin cancer.

SMILES: CC1CC(OC(=O)c2ccccc2O)CC(C)(C)C1 (stereo not shown) [Homosalate]
- E1%, 1 cm: 180
